Patent US8759303B2, “Compositions and methods for treating myelodysplastic syndrome” (Telik, Inc., priority 2010, dated 2014)
Read-outs that look alike come from different tables or passages of the source.

Tested on: patients with IPSS Low to Intermediate-1 Risk Myelodysplastic Syndrome
Conditions: for patients achieving significant RBC transfusion reduction: no prior DMTI, five of 11 patients
Procedure: Eighty-seven patients were randomized and treated at 23 investigational sites. After initial dose ranging in 14 patients, two dose levels were selected for further study. Subsequently, 37 patients were treated at 3 grams daily for two weeks followed by a one week rest period, and 36 patients were treated at 2 grams daily for three weeks followed by a one week rest period. The data on these 73 patients was pooled for this preliminary analysis.

Question: Which results are given for `CCOC(=O)[C@@H](N)CCC(=O)N[C@@H](CSCc1ccccc1)C(=O)N[C@@H](C(=O)OCC)c1ccccc1` [Telintra, ethyl (2S)-2-amino-5-[[(2R)-3-benzylsulfanyl-1-[[(1R)-2-ethoxy-2-oxo-1-phenylethyl]amino]-1-oxopropan-2-yl]amino]-5-oxopentanoate]?
Answer: increase in response rate, lenalidomide pre-treated vs not pre-treated patients (46% vs 22% response rate): over 100%; cytogenetic complete responses (all study patients): three cytogenetic complete responses; HI-E Response Rate (95% Confidence Interval) (efficacy evaluable patients with prior Revlimid (lenalidomide) treatment: Yes, N=13, listed as ezatiostat hydrochloride): about 46%; complete cytogenetic response in del 5q minus patients (four patients enrolled with del 5q minus, one responder had failed prior Revlimid): two had a complete cytogenetic response; change in odds for a HI-E response with prior DMTI treatment (logistic regression analysis, p=0.023): five-fold decrease; patients achieving significant RBC transfusion reduction (no prior Revlimid): 45%; duration of complete remission following discontinuation of therapy (one patient (Quddus et al.)): more than 12 months; patients achieving significant RBC transfusion reduction (prior Revlimid): 45%
